Laboratory results reported in patent publication US11072582B2 (Epics Therapeutics, priority 2009, dated 2021).

Tested on: adipocytes isolated from normal rat
Assay: Lipolysis assay in isolated adipocytes (isoprenaline-induced)
Assay type: cell-based
Settings: 30 μM, FIG. 1
Procedure: Animals are killed by cervical dislocation and epididymal fat pads are removed and digested in collagenase buffer at 37° C./120 rpm for approximately 50 minutes.
After the pre-treatment, Isoprenaline (1 μM) is added to the adipocytes followed by 30 min incubation at 37° C./150 rpm. The reactions are put on ice and the buffer is assayed spectrophotometrically for the production of NADH^+ from glycerol breakdown in reactions catalyzed by glycerol kinase and glycero 1-3-phosphate dehydrogenase and/or Non Esterified Fatty Acid (NEFA). Each data point is investigated in triplicates in two independent experiments.

Structure (SMILES): Cc1ccc(-c2ccc(C(=O)N3[C@@H](c4ccccc4Cl)CC[C@H]3C(=O)O)cc2)cc1 [Compound 5]
- inhibition of isoprenaline-induced lipolysis: inhibit isoprenaline-induced lipolysis
